Literature values, collected in patent publication US4361545A (Rowell Laboratories, Inc., priority 1981, dated 1982).

Q: For `Cn1c(=O)c2[nH]cnc2n(C)c1=O` [theophylline], which solubility is on record?
A: low to moderate solubility
